Tested on: 958767-090-R-J1-PDC spheroid growth
Assay: Anticancer human tumor 958767-090-R-J1-PDC patient-derived head and neck squamous carcinoma cell line growth inhibition [IpAb]
Conditions: spheroids with HUVEC and MSC; for IC50: curve of first compound; for viability, T/C: stronger effect = lower value
How it was run: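 Spheroids of 60% malignant cells, 25% HUVEC and 15% MSC were exposed to targeted agents combined with ipatasertib or abemaciclib. Doses started at or near clinical Cmax (10 microM when unknown) and fell in half-log steps.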

[1] = second compound 0.1 µM, first compound 0.0316 µM
[2] = second compound 0.1 µM, first compound 0.1 µM
[3] = second compound 0.1 µM, first compound 0.316 µM
[4] = second compound 0.1 µM, first compound 1 µM
[5] = second compound 0.1 µM, first compound 3.16 µM
[6] = second compound 0.1 µM, first compound 10 µM
[7] = second compound 0.316 µM, first compound 0.0316 µM
[8] = second compound 0.316 µM, first compound 0.1 µM
[9] = second compound 0.316 µM, first compound 0.316 µM
[10] = second compound 0.316 µM, first compound 1 µM
[11] = second compound 0.316 µM, first compound 3.16 µM
[12] = second compound 0.316 µM, first compound 10 µM
[13] = second compound 1 µM, first compound 0.0316 µM
[14] = second compound 1 µM, first compound 0.1 µM
[15] = second compound 1 µM, first compound 0.316 µM
[16] = second compound 1 µM, first compound 1 µM
[17] = second compound 1 µM, first compound 3.16 µM
[18] = second compound 1 µM, first compound 10 µM
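For viability, T/C in this document: 100% = DMSO vehicle control wells.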

Cn1ncc(Cl)c1-c1cc(C(=O)NC(CN)Cc2cccc(F)c2)sc1Cl (stereo not given) + CC(C)NCC(C(=O)N1CCN(c2ncnc3c2C(C)CC3O)CC1)c1ccc(Cl)cc1 was tested, and the IC50 (second compound 0.1 µM) was 1210 nM, the IC50 (second compound 0.316 µM) was 952 nM and the IC50 (second compound 1 µM) was 1020 nM. It also gave an IC50 (second compound 3.16 µM) of 113 nM, an IC50 (second compound 10 µM) of under 31.6 nM and a viability, T/C [1] of 70.3%. It also gave a viability, T/C [2] of 70.3%, a viability, T/C [3] of 54.5% and a viability, T/C [4] of 59.3%. It also gave a viability, T/C [5] of 32.8%, a viability, T/C [6] of 0.14% and a viability, T/C [7] of 57.5%. For the same molecule, the viability, T/C [8] was 62.6%, the viability, T/C [9] was 52.2% and the viability, T/C [10] was 47.5%. The viability, T/C [11] was 37.9%, the viability, T/C [12] was 0.46% and the viability, T/C [13] was 54.6%. It also gave a viability, T/C [14] of 50.8%, a viability, T/C [15] of 55.4% and a viability, T/C [16] of 50%. The viability, T/C [17] was 31.6%, the viability, T/C [18] was 0.13% and the viability, T/C (second compound 3.16 µM, first compound 0.0316 µM) was 53.1%. The viability, T/C (second compound 3.16 µM, first compound 0.1 µM) was 47.6%, the viability, T/C (second compound 3.16 µM, first compound 0.316 µM) was 48.4% and the viability, T/C (second compound 3.16 µM, first compound 1 µM) was 45.7%. It also gave a viability, T/C (second compound 3.16 µM, first compound 3.16 µM) of 32.3%, a viability, T/C (second compound 3.16 µM, first compound 10 µM) of 0.64% and a viability, T/C (second compound 10 µM, first compound 0.0316 µM) of 42.5%. It also gave a viability, T/C (second compound 10 µM, first compound 0.1 µM) of 36.3%, a viability, T/C (second compound 10 µM, first compound 0.316 µM) of 39.8% and a viability, T/C (second compound 10 µM, first compound 1 µM) of 42.5%. It also gave a viability, T/C (second compound 10 µM, first compound 3.16 µM) of 22.2% and a viability, T/C (second compound 10 µM, first compound 10 µM) of 0.81%.
With C=CCn1c(=O)c2cnc(Nc3ccc(N4CCN(C)CC4)cc3)nc2n1-c1cccc(C(C)(C)O)n1 + CCN1CCN(Cc2ccc(Nc3ncc(F)c(-c4cc(F)c5nc(C)n(C(C)C)c5c4)n3)nc2)CC1 the IC50 (second compound 0.01 µM) was 237 nM, the IC50 (second compound 0.0316 µM) was 250 nM and the IC50 (second compound 0.1 µM) was 338 nM. The IC50 (second compound 0.316 µM) was 203 nM, the IC50 (second compound 1 µM) was 994 nM and the viability, T/C (second compound 0.01 µM, first compound 0.0316 µM) was 83.8%. It also gave a viability, T/C (second compound 0.01 µM, first compound 0.1 µM) of 69.3%, a viability, T/C (second compound 0.01 µM, first compound 0.316 µM) of 43% and a viability, T/C (second compound 0.01 µM, first compound 1 µM) of 29%. It also gave a viability, T/C (second compound 0.01 µM, first compound 3.16 µM) of 26.7%, a viability, T/C (second compound 0.01 µM, first compound 10 µM) of 21.3% and a viability, T/C (second compound 0.0316 µM, first compound 0.0316 µM) of 79.6%. The viability, T/C (second compound 0.0316 µM, first compound 0.1 µM) was 67.3%, the viability, T/C (second compound 0.0316 µM, first compound 0.316 µM) was 42.9% and the viability, T/C (second compound 0.0316 µM, first compound 1 µM) was 34.7%. It also gave a viability, T/C (second compound 0.0316 µM, first compound 3.16 µM) of 25%, a viability, T/C (second compound 0.0316 µM, first compound 10 µM) of 21.5% and a viability, T/C [1] of 65.6%. It also gave a viability, T/C [2] of 64%, a viability, T/C [3] of 47.1% and a viability, T/C [4] of 40.1%. For the same molecule, the viability, T/C [5] was 31.9%, the viability, T/C [6] was 19.7% and the viability, T/C [7] was 65%. For the same molecule, the viability, T/C [8] was 47.1%, the viability, T/C [9] was 44.1% and the viability, T/C [10] was 46.7%. The viability, T/C [11] was 33.2%, the viability, T/C [12] was 21.5% and the viability, T/C [13] was 77.3%. The viability, T/C [14] was 68.2%, the viability, T/C [15] was 52.3% and the viability, T/C [16] was 55%. It also gave a viability, T/C [17] of 42.8% and a viability, T/C [18] of 34.3%.
Work on Cn1cnc2c(F)c(Nc3ccc(Br)cc3Cl)c(C(=O)NOCCO)cc21 + CCN1CCN(Cc2ccc(Nc3ncc(F)c(-c4cc(F)c5nc(C)n(C(C)C)c5c4)n3)nc2)CC1 yielded an IC50 (second compound 0.01 µM) of 29.3 nM, an IC50 (second compound 0.0316 µM) of 27 nM and an IC50 (second compound 0.1 µM) of 12.6 nM. It also gave an IC50 (second compound 0.316 µM) of 9.64 nM, an IC50 (second compound 1 µM) of 124 nM and a viability, T/C (second compound 0.01 µM, first compound 0.00949 µM) of 71%. It also gave a viability, T/C (second compound 0.01 µM, first compound 0.03 µM) of 49.4%, a viability, T/C (second compound 0.01 µM, first compound 0.0949 µM) of 35.2% and a viability, T/C (second compound 0.01 µM, first compound 0.3 µM) of 34.5%. For the same molecule, the viability, T/C (second compound 0.01 µM, first compound 0.949 µM) was 30%, the viability, T/C (second compound 0.01 µM, first compound 3 µM) was 23.2% and the viability, T/C (second compound 0.0316 µM, first compound 0.00949 µM) was 65%. The viability, T/C (second compound 0.0316 µM, first compound 0.03 µM) was 47.7%, the viability, T/C (second compound 0.0316 µM, first compound 0.0949 µM) was 36.9% and the viability, T/C (second compound 0.0316 µM, first compound 0.3 µM) was 29.7%. For the same molecule, the viability, T/C (second compound 0.0316 µM, first compound 0.949 µM) was 29.3%, the viability, T/C (second compound 0.0316 µM, first compound 3 µM) was 19.7% and the viability, T/C (second compound 0.1 µM, first compound 0.00949 µM) was 53.1%. For the same molecule, the viability, T/C (second compound 0.1 µM, first compound 0.03 µM) was 41.9%, the viability, T/C (second compound 0.1 µM, first compound 0.0949 µM) was 34.9% and the viability, T/C (second compound 0.1 µM, first compound 0.3 µM) was 34.1%. The viability, T/C (second compound 0.1 µM, first compound 0.949 µM) was 26.7%, the viability, T/C (second compound 0.1 µM, first compound 3 µM) was 23.5% and the viability, T/C (second compound 0.316 µM, first compound 0.00949 µM) was 51.9%. It also gave a viability, T/C (second compound 0.316 µM, first compound 0.03 µM) of 41.9%, a viability, T/C (second compound 0.316 µM, first compound 0.0949 µM) of 40.1% and a viability, T/C (second compound 0.316 µM, first compound 0.3 µM) of 36.1%. The viability, T/C (second compound 0.316 µM, first compound 0.949 µM) was 28%, the viability, T/C (second compound 0.316 µM, first compound 3 µM) was 21.2% and the viability, T/C (second compound 1 µM, first compound 0.00949 µM) was 69.3%. For the same molecule, the viability, T/C (second compound 1 µM, first compound 0.03 µM) was 67.2%, the viability, T/C (second compound 1 µM, first compound 0.0949 µM) was 51.9% and the viability, T/C (second compound 1 µM, first compound 0.3 µM) was 42.8%. The viability, T/C (second compound 1 µM, first compound 0.949 µM) was 44.5% and the viability, T/C (second compound 1 µM, first compound 3 µM) was 37%.

From PubChem BioAssay AID2060336 (Molecular Pharmacology Branch, DTP, NCI, 2025)
